# Reference: patent US12617814B2, “Neuroactive steroids and methods of use thereof” (Sage Therapeutics, LLC, priority 2013, dated 2026)
# Tests used:
# [1] = molecular target: T1, NMDA receptor (GRIN1/GRIN2A subunits) (Homo sapiens, UniProt Q05586+Q12879); assay: NMDA potentiation, whole-cell patch clamp of HEK cells expressing NMDA receptor; assay type: cell-based; settings: HEK cells, 30 μM NMDA and 5.0 μM Glycine; for activation at 0.1 µM: HEK293, 0.1 uM compound, read-out: NMDA 1a2A (%) Potentiation 0.1 uM; for activation at 1 µM: HEK293, 1 uM compound, read-out: NMDA 1a2A (%) Potentiation 1 uM
# T1 construct: expressed in transfected cells
# Procedure: NMDA potentiation was assessed using either whole cell patch clamp of mammalian cells which expressed NMDA receptors, or using two-electrode voltage clamp (TEVC) of Xenopus Laevis oocytes expressing NMDA receptors.
# NMDA/Glycine peak and steady-state currents were recorded from stably transfected cells expressing the NMDA receptor and the modulatory effects of the test items on these currents were investigated.
# Cells were stably transfected with human GRIN1 (variant NR1-3). These cells were transiently transfected (Lipofectamine™) with GRIN2A cDNA and CD8 (pLeu) antigene cDNA. About 24-72 hours following transfection 1 μl Dynabeads M-45 CD8 was added to identify successfully transfected cells (Jurman et al., Biotechniques (1994) 17:876-881). Cells were passaged to a confluence of 50-80%. Cells were seeded onto Poly-L-Lysine coated cover slips covered with culture complete medium in a 35 mm culture dish. Confluent clusters of cells are electrically coupled (Pritchett et al., Science (1988), 242:1306-8). Because responses in distant cells are not adequately voltage clamped and because of uncertainties about the extent of coupling (Verdoorn et al., Neuron (1990), 4:919-28), cells were cultivated at a density that enables single cells (without visible connections to neighboring cells) to be measured. Cells were incubated at 37° C. in a humidified atmosphere with 5% CO2 (rel. humidity about 95%). The cells were continuously maintained in and passaged in sterile culture flasks containing a 1:1 mixture of Dulbecco's modified eagle medium and nutrient mixture F-12 (D-MEM/F-12 1×, liquid, with L-Glutamine) supplemented with 9% fetal bovine serum and 0.9% Penicillin/Streptomycin solution. The complete medium was supplemented with 3.0 μg/ml Puromycin.
# Whole cell currents were measured with HEKA EPC-10 amplifiers using PatchMaster software. Cell culture dishes for recordings were placed on the dish holder of the microscope and continuously perfused (1 ml/min) with “bath solution” (NaCl 137 mM, KCl 4 mM, CaCl2 1.8 mM, MgCl2 1 mM, HEPES 10 mM, D-Glucose 10 mM, pH (NaOH) 7.4). All solutions applied to cells including the pipette solution were maintained at room temperature (19° C.-30° C.). After formation of a Gigaohm seal between the patch electrodes and transfected individual HEK 293 cells (pipette resistance range: 2.5 MΩ-6.0 MΩ; seal resistance range: >1 GQ) the cell membrane across the pipette tip was ruptured to assure electrical access to the cell interior (whole-cell patch-configuration). At this point the bath solution is switched to “NMDA bath solution” (NaCl 137 mM, KCl 4 mM, CaCl2 2.8 mM, HEPES 10 mM, D-Glucose 10 mM, Cremophore 0.02%, pH (NaOH) 7.4). NMDA inward currents were measured upon application of 30 μM NMDA (and 5.0 μM Glycine) to patch-clamped cells (2 applications) for 5 s. The cells were voltage clamped at a holding potential of −80 mV. For the analysis of test articles, NMDA receptors were stimulated by 30 μM NMDA and 5.0 μM Glycine after sequential pre-incubation of increasing concentrations of the test article. Pre-incubation duration was 30 s. Stimulation duration was 5 s Test articles were dissolved in DMSO to form stock solutions of 0.1 mM and 1 mM. Test articles were diluted to 0.1 μM and 1 μM in “NMDA bath solution”. Both concentrations of test articles were tested on each cell. The same concentration was applied at least three times or until the steady state current amplitude was reached. Every day one cell was tested with 50 μM PREGS (positive control) using the same application protocol to test whether cells were successfully transfected with NMDA receptors.
# NMDA (NR1a/NR2A) = NMDA (NR1a/NR2A) (Homo sapiens, UniProt Q05586+Q12879); settings: cited from earlier work
# Chain of NMDA (NR1a/NR2A) (Q12879 23-1464, other chains not shown): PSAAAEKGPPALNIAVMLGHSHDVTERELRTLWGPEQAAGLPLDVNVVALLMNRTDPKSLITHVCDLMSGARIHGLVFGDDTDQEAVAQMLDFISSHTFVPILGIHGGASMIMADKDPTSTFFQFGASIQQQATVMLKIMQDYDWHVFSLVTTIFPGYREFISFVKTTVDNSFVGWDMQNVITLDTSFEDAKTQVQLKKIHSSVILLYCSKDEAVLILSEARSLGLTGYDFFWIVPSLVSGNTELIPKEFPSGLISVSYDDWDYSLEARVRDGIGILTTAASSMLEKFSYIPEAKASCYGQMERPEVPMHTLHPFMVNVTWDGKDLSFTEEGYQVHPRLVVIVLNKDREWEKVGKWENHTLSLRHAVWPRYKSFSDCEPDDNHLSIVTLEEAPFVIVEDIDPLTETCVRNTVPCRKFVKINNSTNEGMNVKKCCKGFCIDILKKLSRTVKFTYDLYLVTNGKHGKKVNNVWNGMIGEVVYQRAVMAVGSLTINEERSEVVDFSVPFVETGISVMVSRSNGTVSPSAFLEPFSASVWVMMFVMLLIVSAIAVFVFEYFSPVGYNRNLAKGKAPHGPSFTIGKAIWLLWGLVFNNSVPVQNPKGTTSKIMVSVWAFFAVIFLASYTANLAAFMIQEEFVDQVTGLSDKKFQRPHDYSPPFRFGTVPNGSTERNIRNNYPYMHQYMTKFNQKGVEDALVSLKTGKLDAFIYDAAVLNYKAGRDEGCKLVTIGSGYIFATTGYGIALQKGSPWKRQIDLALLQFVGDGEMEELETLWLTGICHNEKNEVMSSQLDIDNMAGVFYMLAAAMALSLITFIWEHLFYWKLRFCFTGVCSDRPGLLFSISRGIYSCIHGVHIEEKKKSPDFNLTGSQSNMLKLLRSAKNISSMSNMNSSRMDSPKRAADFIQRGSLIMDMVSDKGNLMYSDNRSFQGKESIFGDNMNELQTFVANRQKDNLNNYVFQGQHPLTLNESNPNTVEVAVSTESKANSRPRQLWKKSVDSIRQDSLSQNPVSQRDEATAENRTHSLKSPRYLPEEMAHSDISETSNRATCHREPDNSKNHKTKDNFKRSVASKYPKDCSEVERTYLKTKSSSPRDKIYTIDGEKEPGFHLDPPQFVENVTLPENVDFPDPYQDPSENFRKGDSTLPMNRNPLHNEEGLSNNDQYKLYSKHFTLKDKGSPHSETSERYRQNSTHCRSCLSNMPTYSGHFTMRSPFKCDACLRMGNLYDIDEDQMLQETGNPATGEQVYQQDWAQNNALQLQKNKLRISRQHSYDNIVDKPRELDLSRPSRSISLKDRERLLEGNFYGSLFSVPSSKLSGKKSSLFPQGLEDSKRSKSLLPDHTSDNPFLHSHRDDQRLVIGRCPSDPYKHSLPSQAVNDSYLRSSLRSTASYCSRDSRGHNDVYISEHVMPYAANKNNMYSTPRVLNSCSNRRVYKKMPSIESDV
# T1 sequence (Q12879 23-1464, other chains not shown): as above
SMILES,activation at 0.1 µM [1] [%],activation at 1 µM [1] [%],modulation of NMDA (NR1a/NR2A) (NMDA (NR1a/NR2A)),selectivity NMDA over GABAA (NMDA (NR1a/NR2A))
"C[C@H](CCC(C)(C)O)[C@H]1CC[C@H]2[C@@H]3CC=C4C[C@@H](O)CC[C@]4(C)[C@H]3CC[C@]12C (stereo in doubt) [Org-1, reference compound]",10 to 75,150 to 250,positive modulator,selectively modulate NMDA over GABAA
C[C@H](CC[C@@H](O)C(F)(F)F)[C@H]1CC[C@H]2[C@@H]3CC=C4C[C@@](C)(O)CC[C@]4(C)[C@H]3CC[C@]12C [Compound 1-17],150 to 250,150 to 250,,
